# System: P12-Ichikawa
# Experiment: cell viability relative to DMSO control; higher = less cytotoxic
# Settings: 48 h
# Method in brief: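 Viability, reported as a per-plate percentage of DMSO wells with cell-free wells as background, came from CellTiter-Glo One luminescence. Reading took place after 48 h at 37°C. Before that, NOMO1 or SEM (500 cells/well) or P12-Ichikawa (1000 cells/well) leukemia cells, adapted for at least four passages in each medium, were seeded in 1536-well plates (5 μl) and pin-dosed with library compounds in DMSO, 47 μM to 0.79 nM over 11 threefold points.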
# [1] = HPLM + 10% dialyzed FBS, 0.000781 µM
# [2] = HPLM + 10% dialyzed FBS, 0.00234 µM
# [3] = HPLM + 10% dialyzed FBS, 0.00702 µM
# [4] = HPLM + 10% dialyzed FBS, 0.0211 µM
# [5] = HPLM + 10% dialyzed FBS, 0.0632 µM
# [6] = HPLM + 10% dialyzed FBS, 0.19 µM
# [7] = HPLM + 10% dialyzed FBS, 0.569 µM
# [8] = HPLM + 10% dialyzed FBS, 1.71 µM
# [9] = HPLM + 10% dialyzed FBS, 5.12 µM
# [10] = HPLM + 10% dialyzed FBS, 15.4 µM
# [11] = HPLM + 10% dialyzed FBS, 46.1 µM
# [12] = RPMI 5 mM glucose + 10% FBS, 0.000781 µM
# [13] = RPMI 5 mM glucose + 10% FBS, 0.00234 µM
# [14] = RPMI 5 mM glucose + 10% FBS, 0.00702 µM
# [15] = RPMI 5 mM glucose + 10% FBS, 0.0211 µM
# [16] = RPMI 5 mM glucose + 10% FBS, 0.0632 µM
# [17] = RPMI 5 mM glucose + 10% FBS, 0.19 µM
# [18] = RPMI 5 mM glucose + 10% FBS, 0.569 µM
# [19] = RPMI 5 mM glucose + 10% FBS, 1.71 µM
# [20] = RPMI 5 mM glucose + 10% FBS, 5.12 µM
# [21] = RPMI 5 mM glucose + 10% FBS, 15.4 µM
# [22] = RPMI 5 mM glucose + 10% FBS, 46.1 µM
# [23] = RPMI 5 mM glucose + 10% dialyzed FBS, 0.000781 µM
# [24] = RPMI 5 mM glucose + 10% dialyzed FBS, 0.00234 µM
# [25] = RPMI 5 mM glucose + 10% dialyzed FBS, 0.00702 µM
# [26] = RPMI 5 mM glucose + 10% dialyzed FBS, 0.0211 µM
# [27] = RPMI 5 mM glucose + 10% dialyzed FBS, 0.0632 µM
# [28] = RPMI 5 mM glucose + 10% dialyzed FBS, 0.19 µM
# [29] = RPMI 5 mM glucose + 10% dialyzed FBS, 0.569 µM
# [30] = RPMI 5 mM glucose + 10% dialyzed FBS, 1.71 µM
# [31] = RPMI 5 mM glucose + 10% dialyzed FBS, 5.12 µM
# [32] = RPMI 5 mM glucose + 10% dialyzed FBS, 15.4 µM
# [33] = RPMI 5 mM glucose + 10% dialyzed FBS, 46.1 µM
Structure (SMILES),cell viability [1] [%],cell viability [2] [%],cell viability [3] [%],cell viability [4] [%],cell viability [5] [%],cell viability [6] [%],cell viability [7] [%],cell viability [8] [%],cell viability [9] [%],cell viability [10] [%],cell viability [11] [%],cell viability [12] [%],cell viability [13] [%],cell viability [14] [%],cell viability [15] [%],cell viability [16] [%],cell viability [17] [%],cell viability [18] [%],cell viability [19] [%],cell viability [20] [%],cell viability [21] [%],cell viability [22] [%],cell viability [23] [%],cell viability [24] [%],cell viability [25] [%],cell viability [26] [%],cell viability [27] [%],cell viability [28] [%],cell viability [29] [%],cell viability [30] [%],cell viability [31] [%],cell viability [32] [%],cell viability [33] [%]
Cc1onc(-c2ccccc2Cl)c1C(=O)N[C@@H]1C(=O)N2[C@@H]1SC(C)(C)[C@@H]2C(=O)[O-],112,116,113,116,113,113,113,111,110,105,106,119,117,113,111,116,114,116,110,117,101,101,103,111,115,119,126,109,120,105,112,98.4,98.1
C[S+](=O)([O-])Nc1ccc([N+](=O)[O-])cc1Oc1ccccc1,114,115,111,120,112,115,118,109,109,102,59.4,122,121,120,119,120,122,116,111,116,112,28.5,110,108,114,113,121,110,117,103,106,103,48.7
C[C@H]1C[C@@H]2[C@H](CC[C@@]3(C)[C@H]2CC[C@]3(OC(C)=O)C(C)=O)[C@@]\4(C)CCC(=O)\C=C14,99.8,105,111,107,122,115,114,107,98.7,95.5,107,112,112,123,108,113,113,110,101,94.3,80.3,96.3,101,113,102,107,120,103,96.3,93.7,96,80.1,88.4
CC(C)(C)OC(=O)N[C@H]1CCCCC/C=C\[C@@H]2C[C@@]2(C(=O)N[S+](=O)([O-])C2CC2)NC(=O)[C@@H]2C[C@@H](OC(=O)N3Cc4cccc(F)c4C3)CN2C1=O,108,114,108,109,112,114,115,111,108,104,87.1,110,108,110,108,114,112,125,114,113,104,82.1,95.2,104,117,94.3,105,104,112,106,94.2,89.3,80.5

# From the supplement of paper PMC11451515
